Source: patent EP2457906A1, “Derivatives of 1,2,4-benzothiadiazine dioxide, their preparation and use as allosteric modulators of the AMPA receptor” (Universita'del Salento, priority 2010, dated 2012)
Blank lines part the entries; values can stand above or below the compound they belong to.

Tested on: AMPA-kainate receptors
Test: Patch-clamp (whole-cell voltage-clamp) recording of kainate-evoked currents in primary cultures of cortical neurons
Format: cell-based
Conditions: rat cortical neurons; for type of allosteric modulation of the AMPA receptor: effect on current induced by Kainate; for Variation in the current induced by Kainate, %: compound at 10 µM, mean ± SE (n = 4-6)
Description: The pharmacological studies were conducted using the patch-clamp technique on primary cultures of cortical neurons.
The primary neuronal cultures were obtained from 1-day-old Sprague-Dawley rats. The cells were dispersed with trypsin (0.24 mg/ml) and plated out at a density of 10^6 cells/ml on 35mm Petri dishes pretreated with poly-L-lysine (10 µg/ml). The cells were cultivated in Eagle's Basal Medium with the addition of 10% foetal calf serum, 2 mM glutamine and 100 µg/ml gentamicin, and stored in an incubator at 37°C in 5% carbon dioxide.
To prevent astroglial proliferation, cytosine arabinofuranoside was added (1-10 µM) to the cultures 24h after plating out.
The patch-clamp recordings were performed on a single cell after 7 days in culture using the voltage-clamp technique in whole-cell configuration (Hamill OP, Marty A, Neher E, Sakmann B, Sigworth FJ (1981): Improved patchclamp techniques for high-resolution current recording from cell and cell-free membrane patches. Pflugers Arch, 85-100). […] The currents were amplified with an Axopatch 1 D amplifier (Axon Instruments, Foster City, CA), filtered at 5 kHz and digitised at 10 kHz using the pClamp software (Axon Instruments, Foster City, CA).
The intracellular solutions contained: KCI 140mM, MgCl2 3mM, EGTA 5mM, HEPES 5mM, ATP-Na 2mM, and were brought to pH 7.3 with KOH. The cells were continuously perfused with an external solution containing: NaCl 145mM, KCI 5mM, CaCl2 1mM, HEPES 5mM, glucose 5mM, saccharose 20Mm, and brought to pH 7.4 with NaOH.
The compounds tested were dissolved in DMSO and diluted to the final concentration in the extracellular solution. (The DMSO in the final concentration is less than 0.1%.) The kainate (SIGMA) was dissolved in the extracellular solution. All of the substances were applied directly by gravity through a "Y-tube" perfusion system (Murase K, Ryu PD, Randic M (1989). Excitatory and inhibitory amino acids and peptide-induced responses in acutely isolated rat spinal dorsal horn neurons. Neurosci Lett 103, 56-63).
The electrophysiological data was analysed using the software pCLAMP 6.3 (Axon Instruments).
The compounds according to the invention have proven to be potent allosteric modulators of the response mediated by AMPA-kainate receptors. […] The values are expressed as the mean ± SE (n = 4-6).

EC50 (potentiation of currents induced by Kainate, calculated from dose/response data of Figure 1): 1100 nM
SMILES: CC1Nc2c(-c3ccoc3)cc(Cl)cc2S(=O)(=O)N1 (stereo not drawn) [(1), 7-chloro-5-(3-furyl)-3-methyl-3,4-dihydro-2H-1,2,4-benzothiadiazine 1,1-dioxide]
type of allosteric modulation of the AMPA receptor (10 µM): positive allosteric modulator
increase of the current induced by Kainate (10 µM, text statement on the data of Table 1): around 360 times
EC2X (i.e. the concentration at which the AMPA receptor currents are potentiated 2 times) (calculated from dose/response data of Figure 1): 500 nM
Variation in the current induced by Kainate, %: 358±80%

SMILES: O=S1(=O)NCNc2c(-c3ccco3)cc(Cl)cc21 [(5), 7-chloro-5-(2-furyl)-3,4-dihydro-2H-1,2,4-benzothiadiazine 1,1-dioxide]
type of allosteric modulation of the AMPA receptor (10 µM): positive allosteric modulator
Variation in the current induced by Kainate, %: 20±5%

SMILES: CCC1Nc2c(-c3ccco3)cc(Cl)cc2S(=O)(=O)N1 (stereo not drawn) [(4), 7-chloro-5-(2-furyl)-3-ethyl-3,4-dihydro-2H-1,2,4-benzothiadiazine 1,1-dioxide]
type of allosteric modulation of the AMPA receptor (10 µM): negative allosteric modulators
Variation in the current induced by Kainate, %: -32±12%

SMILES: CC1Nc2c(-c3ccsc3)cc(Cl)cc2S(=O)(=O)N1 (stereo not drawn) [(2), 7-chloro-3-methyl-5-thien-3-yl-3,4-dihydro-2H-1,2,4-benzothiadiazine 1,1-dioxide]
type of allosteric modulation of the AMPA receptor (10 µM): positive allosteric modulator
Variation in the current induced by Kainate, %: 214±41%

SMILES: CC1=Nc2c(-c3ccco3)cc(Cl)cc2S(=O)(=O)N1 [(6), 7-chloro-5-(2-furyl)-3-methyl-1,2,4-benzothiadiazine 1,1-dioxide]
type of allosteric modulation of the AMPA receptor (10 µM): negative allosteric modulators
Variation in the current induced by Kainate, %: -21±9%

SMILES: CC1Nc2c(-c3ccco3)cc(Cl)cc2S(=O)(=O)N1 (stereo not drawn) [(3), 7-chloro-5-(2-furyl)-3-methyl-3,4-dihydro-2H-1,2,4-benzothiadiazine 1,1-dioxide]
type of allosteric modulation of the AMPA receptor (10 µM): positive allosteric modulator
Variation in the current induced by Kainate, %: 80±16%
